Data: patent publication US12421277B2, “Anti-aging salmon roe tripeptide and preparation method and application thereof” (Shenzhen Porshealth Bioengineering Co., Ltd., priority 2023, dated 2025)
Where a SMILES comes first, the peptide text is derived from it.

Experiment: Blood absorption of YLP in rats, UPLC-MS/MS
Conditions: rat, in vivo, po, SD rats, intragastric 100 mg/kg bw
Procedure: In this research, SD rats are used, and divided into three groups: a normal group and salmon YLP groups (with a daily dosage of 100 mg/kg bw). The rats are fasted but allowed to drink water 12 h before the experiment begins. At 15 min, 45 min, 90 min, 180 min and 360 min after intragastric administration, all the rats are anesthetized with the 3% pentobarbital sodium, and blood is collected from abdominal aortas, followed by euthanasia. […]
• (1) The required samples are taken out for thawing, and uniformly mixed by a vortex. • (2) 40 μL of a mixed sample is taken, and 120 μL of methanol is added for shaking treatment for 10 min, and a resultant is centrifuged at a low temperature for 10 min. • (3) 70 μL of a supernatant solution is taken from the centrifuged sample for subsequent measurement. 4.2.2.2 Preparation of Standard Solution
Chromatographic separation is performed by using a Waters ACQUITY UPLC I-CLASS ultra-high performance liquid chromatographic device. Specific conditions are as follows: chromatographic column Waters UPLC HSS T3 ([…], 2.1 mm×100 mm)—mobile phase: A phase (water, 0.1% formic acid), B phase (methanol)—flow rate: 0.3 mL/min—injection volume: 5.0 μL—column temperature: 40° C. —single sample analysis time: 8 min.
A Waters XEVO TQ-XS tandem quadrupole mass spectrometer is used for mass spectrometry detection. Specific conditions are as follows: positive ion source voltage: 3.0 kV—cone voltage: 30 V—desolvation temperature: 500° C. —desolvation gas flow rate: […]—cone gas flow rate: […].
Data is expressed in the form of Mean±SD. Graphpad is used for data processing and significance analysis. […] A target peak area in polypeptide metabolic data is calculated by using TargetLynx software, and an allowable error of a retention time is 15 s. Concentration calculation is based on a standard curve method to obtain quantitative results.

SMILES: CC(C)C[C@H](NC(=O)[C@@H](N)Cc1ccc(O)cc1)C(=O)N1CCC[C@H]1C(=O)O [YLP] (H-Tyr-Leu-Pro-OH; N-terminus and C-terminus assumed)
- AUC (15-360 min): 6.19 ng·h/mL
- Cmax (at 90 min, read-out: maximum content of YLP in blood): 1.31 ± 0.44 ng/mL
- Tmax (read-out: time of maximum content in blood (converted)): 1.5 h
